Experimental data reported in patent US5627270A, “Glycosylated steroid derivatives for transport across biological membranes and process for making and using same” (Trustees of Princeton University, priority 1994, dated 1997).
“Also recorded” adds a separate entry of the source. Where two headings read alike, the source gives them in different places.

Experiments:
[1] = ASSAY I: leakage of carboxyfluorescein from vesicles; assay type: biochemical; details: for efficacy in permeabilizing phospholipid membranes: concentrations required for >50% leakage taken as measure
[2] = ASSAY II: proton transport across lipid membranes; assay type: biochemical
[3] = tested on: DH2 cells (a mutant strain of E. coli K-12); assay type: cell-based; details: for EFFECT (enhancement of erythromycin): compound 20 mM; as to EFFECT (enhancement of erythromycin): key: --: erythromycin alone at 1.0 mM (baseline) and all lesser effects; +: enhancement relative to baseline; +++: significant enhancement relative to baseline
Crithidia fasciculate [4] = assay: ASSAY IV: efficacy of antifungal agents on protozoa with and without added glycosylated steroid derivatives; assay type: cell-based
[5] = Enhanced transmucosal delivery of co-administered agents in rat ileum or colon; assay type: in vivo
[6] = rat, in vivo
[7] = rat, in vivo; remark: listed apart in the source
[8] = rat, in vivo; remark: listed apart in the source
[9] = rat, in vivo, 100000 uM
[10] = Plasma calcitonin after ileal co-administration in the rat; details: absence of 1
[11] = Plasma vancomycin after ileal co-administration in the rat
Crithidia fasciculate [12] = details: antifungal agent alone; cited from earlier work
[13] = Plasma gentamicin after ileal co-administration in the rat; details: absence of 1

Which results are given for `COC(=O)CC[C@@H](C)[C@H]1CC[C@H]2[C@@H]3[C@H](O[C@H]4O[C@H](CO)[C@@H](O)[C@H](O)[C@H]4O)C[C@@H]4C[C@H](OC(=O)c5ccc(OC)cc5)CC[C@]4(C)[C@H]3C[C@H](O[C@H]3O[C@H](CO)[C@@H](O)[C@H](O)[C@H]3O)[C@]12C` [Entry 8, 3α-O-p-methoxybenzoyl-cis-5,10-bis-α,α-7,12-glucosyl cholic acid methyl ester]?
% increase in Fluorescence ([1]; 0.117 mM final concentration): 89.1%; efficacy in permeabilizing phospholipid membranes [1]: the most effective glycosylated steroids tested; efficacy in permeabilizing phospholipid membranes ([1]; listed as CME): a good membrane permeabilizing agent; % Decrease in Fluorescence ([2]; 0.00579 mM final concentration): 20.6%; % Decrease in Fluorescence ([2]; 0.0116 mM final concentration): 32.2%; EFFECT (clearing) ([3]; compound 0.001 mM, erythromycin 0.01 mM): +; EFFECT (clearing) ([3]; compound 0.01 mM, erythromycin 0.01 mM): +; EFFECT (clearing) ([3]; compound 0.1 mM, erythromycin 0.01 mM): +; EFFECT (clearing) ([3]; compound 0.1 mM, erythromycin 0.1 mM): +; EFFECT (enhancement of erythromycin) ([3]; erythromycin 0.5 mM): +++; EFFECT (enhancement of erythromycin) ([3]; erythromycin 1.0 mM): +++; enhancing effect on erythromycin ([3]; lower concentrations (Table V)): acts as an enhancer at very low concentrations; enhancing effect on erythromycin ([3]; test compound 20 mM): the best "enhancer" in this assay; enhancement of antifungal efficacy (Crithidia fasciculate [4]; with 10-TSA (thiastearic acid), listed as CME): enhancing effect; also recorded: enhances the efficacy of 10-TSA dramatically; enhancement of antifungal efficacy (Crithidia fasciculate [4]; with 24-TC (thiacholestanol), listed as CME): enhancing effect; also recorded: enhance the efficacy of 24-TC

With `COC(=O)CC[C@@H](C)[C@H]1CC[C@H]2[C@@H]3[C@H](O[C@H]4O[C@H](CO)[C@@H](O)[C@H](O)[C@H]4O)C[C@@H]4C[C@@H](N)CC[C@]4(C)[C@H]3C[C@H](O[C@H]3O[C@H](CO)[C@@H](O)[C@H](O)[C@H]3O)[C@]12C` [Compound 1, 3β-amino-7α,12α-di(1'α-glucosyl)-5β-cholic acid methyl ester] as the molecule, how does the “plasma levels of co-administered agents” value [5] read?
Its value is “increase the plasma levels of proteinaceous compounds; also recorded: resembled pharmacokinetic profiles of agents administered intravenously”.

And the “plasma concentrations of gentamicin versus concentration of 1” value [6]?
The value was “increasing plasma concentrations of the gentamicin”.

And the “plasma calcitonin versus amount of 1” value [7]?
Its value is “plasma calcitonin levels rise with increasing amounts of 1”.

What about the “bioavailability of calcitonin” value ([7]; po) of the same molecule?
Its value is “significant amounts of calcitonin are made available with co-administration of 1”.

What about the “time to almost peak gentamicin levels” value ([8]; 10000 uM) of the same molecule?
The value was no more than 10 min.

What about the “ileal bioavailability of gentamicin” value ([8]; 30000 uM) of the same molecule?
Its value is 19.8%.

And the “peak plasma levels of vancomycin” value [9]?
The value was 15 to 47 µg/mL.

Which “plasma calcitonin” value [10] does the source give for calcitonin here?
The value was “no appreciable amounts of calcitonin are found in the blood”.

For `CN[C@H](CC(C)C)C(=O)N[C@H]1C(=O)N[C@@H](CC(N)=O)C(=O)N[C@H]2C(=O)N[C@H]3C(=O)N[C@H](C(=O)N[C@H](C(=O)O)c4cc(O)cc(O)c4-c4cc3ccc4O)[C@H](O)c3ccc(c(Cl)c3)Oc3cc2cc(c3O[C@@H]2O[C@H](CO)[C@@H](O)[C@H](O)[C@H]2O[C@H]2C[C@](C)(N)[C@H](O)[C@H](C)O2)Oc2ccc(cc2Cl)[C@H]1O` [Vancomycin], which “clearance from the circulation” value ([11]; ileum versus IV) is on record?
The value was “cleared more slowly from the circulation when administered via the ileum than via IV”.

And the Cmax ([11]; rat, in vivo, 5 mg)?
Its Cmax is 5000 to 10000 ng/mL.

Which IC50 (Crithidia fasciculate [12]) does the source give for `CCCCCCCCSCCCCCCCCC(=O)O` [Entry 10-TSA, 10-thiastearic acid] here?
Its IC50 is 10 µM.

For `COC(=O)CC[C@@H](C)[C@H]1CC[C@H]2[C@@H]3[C@H](O)C[C@@H]4C[C@H](OC(=O)c5ccc(OC)cc5)CC[C@]4(C)[C@H]3C[C@H](O)[C@]12C` [CDE, 3α-O-p-methoxybenzoyl-cis-5,10-cholic acid methyl ester, reference compound], which “enhancing effect on erythromycin” value ([3]; lower concentrations (Table V)) is on record?
Its value is “does not function as an enhancer”.

What about the “enhancement of antifungal efficacy” value (Crithidia fasciculate [4]; with 24-TC (thiacholestanol)) of the same molecule?
Its value is “lack of an enhancing effect; also recorded: not observed to act as an enhancer”.

For gentamicin, which “ileal bioavailability of gentamicin” value [13] is on record?
Its value is 10.7%.

What about the “plasma concentrations of gentamicin” value ([13]; ileal, 5 mg antibiotic) of the same molecule?
The value was 1000 to 7000 ng/mL.
